# Experimental data as given in patent US11306095B2 (EAST CHINA UNIVERSITY OF SCIENCE AND TECHNOLOGY, priority 2015, dated 2022).
# Where two headings read alike, the source gives them in different places.
# What was measured:
# [1] = Determination of solubility in water (PBS 20 mM, pH 6.8); type: physicochemical; settings: PBS buffer, aqueous buffer, thermodynamic from solid; pH 6.8, 20 mM PBS; read-out: Solubility (pH 6.8, g/mL)
# Procedure: The suspension was filtered through a 0.22 μm PVDF filter, and then diluted to an appropriate concentration with methanol (v=50%) and PBS (v=50%), and the absorbance was measured by a UV spectrophotometer. About 3 mg of compound was accurately weighed, and methanol was added for preparing a stock solution of 1 mg/mL. The above stock solution was taken and prepared into a solution at concentrations of 0.05, 0.04, 0.03, 0.02 and 0.01 mg/mL, respectively, PBS solution (v=50%) was added and the absorbance value was measured. Concentration c (mg/mL) as horizontal ordinate vs absorbance A as longitudinal coordinate was plotted, and a line was fitted for obtaining a standard curve (correlation coefficient greater than 0.998). The solubility of a compound in water was calculated from the standard curve.
# EGFR-L858R/T790M = target: T1, EGFR-L858R/T790M (Homo sapiens, UniProt P00533, L858R/T790M); assay: Kinase activity test (FRET), EGFR T790M/L858R; type: biochemical
# T1 construct: purchased Invitrogen PV4879
# Procedure: (§1) EGFR-TK catalyses transfer of one phosphate group of adenosine triphosphate (ATP) to polypeptide substrate, poly(Glu, Tyr)4:1, which is labeled with two fluorescent groups coumarin and fluorescein.
# (§2) 2.5 μL of Test Compounds, 5 μL Kinase/Peptide Substrate Mixture, 2.5 μL ATP Solution were added into a 384-well plate, and the 10 μL of reaction system was shaken for 30 s and incubated at room temperature for 1 h. 5 μL of Development Solution was added and the 15 μL of reaction system was shaken for 30 s, and incubated at room temperature for 1 h. […] The inhibitory rates of the compounds at 7 concentration gradients were determined and the IC50 value for each compound was calculated by Origin 8.0 fitting curve.
# (§3) 10 concentration gradients from 5.1×10^−11 mol/L to 1.0×10^−6 mol/L were set for all compounds to be tested.
# (§4) Compounds were diluted in DMSO for three times from 5.1×10^−9 M to 1×10^−4 M. 4 μL of the compound was dissolved in 96 μL of water to obtain a 4× compound solution. […] The 10 μL kinase reaction consisted of 2.5 μL compound solution, 5 μL kinase/peptide mix, 2.5 μL ATP solution. […] 5 μL of phosphorylated peptide solution, instead of the kinase/peptide mixture, was used as a 100% phosphorylation control. […] The plates were thoroughly mixed and incubated at room temperature for 1.5 hours. 5 μL of Development Solution was added into each well and then incubated for another 1 hour at room temperature, unphosphorylated peptides were cleaved during this period. Finally, 5 μL Stop Reagent was added to quench the reaction. The plates were measured with EnVision Multilabel Reader (Perkin Elmer). The experimental data were calculated using GraphPad Prism version 4.0. Each experiment was repeated more than 3 times.
# [2] = system: A431 cells (EGFR wild type); assay: Inhibitory activity on cell proliferation, A431; type: cell-based; settings: Homo sapiens, A-431
# Procedure: (§5) Cell proliferation activity was assessed by MTS assay. Cells were exposed to processing conditions for 72 hours and the number of cells used in each experiment for each cell line was adjusted based on absorbance values (absorbance values at 490 nm, 1.3-2.2). Six concentration gradients (0.1 nM-10 μM) were set for the compounds to be tested, wherein at least 6 sets of parallel controls for each concentration were used.
# (§6) H1975, A431 cells were cultured in corresponding media, and cells were passaged at least twice after resuscitation and then used for experiments. Cells at Log phase were trypsinized and resuspended in culture medium. H1975 (1000 cells per well), A431 (2000 cells per well) were seeded in 96-well plates in a volume of 100 μL; and 6 sets of parallel controls and 7 columns were set. The plate was placed in a 37° C. 5% CO2 incubator overnight. Compounds were dissolved in DMSO to a concentration of […], and then the concentration was gradually diluted to 10 μM, 1 μM, 0.1 μM, 0.01 μM, 0.001 μM, 0.0001 μM per liter, respectively. 2 μL of the compound solution was added to 998 μL of medium, and the mixture was thoroughly mixed. 100 μL of the mixture was added to a 96-well plate. […] After culturing for 68 hours, 20 μL of MTT (5 mg/mL) was added. After 4 hours, the supernatant was discarded and 150 μL of DMSO was added. After shaking for 10 minutes, the plate was read with Synergy HT (Bio TeK) (OD490). Data were calculated using GraphPad Prism version 4.0 and IC50 values were obtained using a non-linear regression model of dose response curve.
# Wild type EGFR = target: T2, Wild type EGFR (Homo sapiens, UniProt P00533); assay: Kinase activity test (FRET), wild type EGFR; type: biochemical
# T2 construct: purchased Invitrogen PV3872
# Procedure: as §1, §2, §3, §4
# [3] = system: H1975 cells (EGFR L858R/T790M); assay: Inhibitory activity on cell proliferation, H1975; type: cell-based; settings: Homo sapiens, NCI-H1975
# Procedure: as §5, §6
# [4] = EGFR T790M/L858R, read-out: Inhibitory activity of EGFR on kinase (IC50, nM) T790M/L858R
# [5] = A431, 72 hours, read-out: Inhibitory activity on proliferation of cells (IC50, μM) A431
# [6] = wild type EGFR, read-out: Inhibitory activity of EGFR on kinase (IC50, nM) WT
# [7] = H1975, 72 hours, read-out: Inhibitory activity on proliferation of cells (IC50, μM) H1975
# [8] = Compound 53 before and after resolution, read-out: Inhibitory IC50 means (nM) ± SD value on tyrosine kinase activity EGFR/T790M/L858R
# [9] = Compound 53 before and after resolution, read-out: Inhibitory IC50 means (μM) ± SD value on tumor cell growth activity A431
# [10] = Compound 53 before and after resolution, read-out: Inhibitory IC50 means (nM) ± SD value on tyrosine kinase activity EGFR
# [11] = Compound 53 before and after resolution, read-out: Inhibitory IC50 means (μM) ± SD value on tumor cell growth activity NCI-H1975
# T2 sequence (P00533 25-1210): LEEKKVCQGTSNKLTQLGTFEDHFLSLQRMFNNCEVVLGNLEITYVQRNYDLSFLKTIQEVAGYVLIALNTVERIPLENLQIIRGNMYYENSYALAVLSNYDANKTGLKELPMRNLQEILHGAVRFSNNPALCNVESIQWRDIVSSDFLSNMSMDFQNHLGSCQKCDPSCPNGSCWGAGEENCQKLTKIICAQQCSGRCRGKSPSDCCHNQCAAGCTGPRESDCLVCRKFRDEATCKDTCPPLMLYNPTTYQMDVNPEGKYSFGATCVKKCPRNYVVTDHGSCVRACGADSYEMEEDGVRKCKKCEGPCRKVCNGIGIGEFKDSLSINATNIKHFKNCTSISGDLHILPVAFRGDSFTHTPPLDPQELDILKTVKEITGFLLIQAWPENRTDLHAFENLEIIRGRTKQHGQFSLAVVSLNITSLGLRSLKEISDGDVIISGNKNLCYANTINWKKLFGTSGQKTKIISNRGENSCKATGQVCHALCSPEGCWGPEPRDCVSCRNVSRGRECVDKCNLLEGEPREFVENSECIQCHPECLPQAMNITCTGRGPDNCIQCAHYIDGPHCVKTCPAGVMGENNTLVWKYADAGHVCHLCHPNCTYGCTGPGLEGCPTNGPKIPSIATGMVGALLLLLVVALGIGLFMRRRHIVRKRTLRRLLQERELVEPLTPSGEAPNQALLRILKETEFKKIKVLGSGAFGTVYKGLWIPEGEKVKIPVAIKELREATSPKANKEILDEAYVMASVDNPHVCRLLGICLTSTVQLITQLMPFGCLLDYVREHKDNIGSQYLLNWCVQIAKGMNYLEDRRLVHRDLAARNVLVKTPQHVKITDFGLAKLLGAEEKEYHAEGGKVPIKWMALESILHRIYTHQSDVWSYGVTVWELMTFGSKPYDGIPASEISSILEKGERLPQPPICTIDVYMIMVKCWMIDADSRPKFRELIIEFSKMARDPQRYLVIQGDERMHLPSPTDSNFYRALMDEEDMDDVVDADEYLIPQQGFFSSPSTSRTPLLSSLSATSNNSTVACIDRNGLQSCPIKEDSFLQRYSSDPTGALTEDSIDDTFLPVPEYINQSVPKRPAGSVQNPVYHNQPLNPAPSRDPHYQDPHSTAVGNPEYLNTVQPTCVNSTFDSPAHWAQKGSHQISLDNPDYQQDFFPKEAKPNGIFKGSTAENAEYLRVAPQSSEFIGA
# T1 sequence (P00533 25-1210 T790M/L858R): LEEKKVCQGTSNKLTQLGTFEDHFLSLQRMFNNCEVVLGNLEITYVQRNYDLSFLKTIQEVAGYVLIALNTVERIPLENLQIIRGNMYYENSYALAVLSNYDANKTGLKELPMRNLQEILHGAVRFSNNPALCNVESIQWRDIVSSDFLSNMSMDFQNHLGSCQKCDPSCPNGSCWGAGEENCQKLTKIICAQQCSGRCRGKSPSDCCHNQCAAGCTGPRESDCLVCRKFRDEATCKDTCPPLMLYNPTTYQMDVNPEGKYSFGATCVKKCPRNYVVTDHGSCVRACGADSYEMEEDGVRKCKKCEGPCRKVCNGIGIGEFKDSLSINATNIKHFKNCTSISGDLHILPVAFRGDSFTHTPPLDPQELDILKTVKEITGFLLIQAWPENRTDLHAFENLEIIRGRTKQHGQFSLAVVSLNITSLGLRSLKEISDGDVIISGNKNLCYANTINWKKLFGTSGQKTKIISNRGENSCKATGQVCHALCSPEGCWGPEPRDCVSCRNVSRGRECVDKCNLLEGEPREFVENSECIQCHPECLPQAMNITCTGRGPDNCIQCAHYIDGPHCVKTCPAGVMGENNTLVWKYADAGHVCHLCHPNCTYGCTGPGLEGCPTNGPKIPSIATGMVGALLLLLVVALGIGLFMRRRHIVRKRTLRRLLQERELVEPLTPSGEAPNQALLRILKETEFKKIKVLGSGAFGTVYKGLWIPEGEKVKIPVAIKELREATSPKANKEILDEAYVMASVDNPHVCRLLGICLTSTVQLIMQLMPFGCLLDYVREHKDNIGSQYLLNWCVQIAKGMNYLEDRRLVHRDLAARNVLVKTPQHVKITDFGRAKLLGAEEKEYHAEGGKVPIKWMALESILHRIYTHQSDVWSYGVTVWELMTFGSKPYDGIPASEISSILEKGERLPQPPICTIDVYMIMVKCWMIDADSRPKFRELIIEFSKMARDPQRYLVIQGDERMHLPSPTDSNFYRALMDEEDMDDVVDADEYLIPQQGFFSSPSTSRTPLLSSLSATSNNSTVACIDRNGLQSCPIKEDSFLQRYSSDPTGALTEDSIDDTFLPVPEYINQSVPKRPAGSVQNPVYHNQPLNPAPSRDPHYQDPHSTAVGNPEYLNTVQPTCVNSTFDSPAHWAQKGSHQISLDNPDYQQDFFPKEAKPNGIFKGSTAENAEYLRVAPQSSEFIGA
solubility [1],IC50 (EGFR-L858R/T790M; [4]),"IC50 [2, 5]",IC50 (Wild type EGFR; [6]),"IC50 [3, 7]","IC50 (EGFR-L858R/T790M; EGFR T790M/L858R, read-out: Inhibitory activity of EGFR on kinase (IC50) T790M/L858R)","IC50 (Wild type EGFR; wild type EGFR, read-out: Inhibitory activity of EGFR on kinase (IC50) WT)",IC50 (EGFR-L858R/T790M; [8]),"IC50 [2, 9]",IC50 (Wild type EGFR; [10]),"IC50 [3, 11]",SMILES
3230 µg/mL,6900 nM,> 10 µM,> 10000 nM,> 10 µM,,,,,,,C=CC(=O)N1CCC[C@@H](n2c(=O)cnc3cnc(Nc4ccc(N5CCN(C)CC5)cc4OC)nc32)C1 [Compound 22]
122 µg/mL,0.6 nM,0.82 µM,2.4 nM,0.006 µM,,,,,,,C=CC(=O)Nc1cccc(-n2c(=O)cnc3cnc(Nc4ccc(N5CCN(C)CC5)c(C)c4)nc32)c1 [Compound 5]
< 10 µg/mL,14.2 nM,0.287 µM,19.2 nM,0.368 µM,,,,,,,"C=CC(=O)N1CCC(n2c(=O)c(-c3ccccc3)nc3cnc(Nc4ccc(N5CCN(C)CC5)c(C)c4)nc32)C1 (stereo not drawn) [Compound 49, 8-(1-acryloyl-3-pyrrolidinyl)-2-((3-methyl-4-(4-methyl-1-piperazinyl)phenyl)amino)-6-phenyl-7(8H)pteridinone]"
< 25 µg/mL,9.5 nM,20.5 µM,45.2 nM,0.197 µM,,,,,,,"C=CC(=O)Nc1cccc(-n2c(=O)cnc3cnc(Nc4ccc(N5CCN(C(C)=O)CC5)cc4OC)nc32)c1 [Compound 7, N-(3-(2-((4-(4-acetyl-1-piperazinyl)-2-methoxyphenyl)amino)-7-oxo-8(7H)-pteridinyl)phenyl)acrylamide]"
2920 µg/mL,576 nM,3.1 µM,700 nM,2.49 µM,,,,,,,"C=CC(=O)N1CC[C@H](n2c(=O)c(C(C)C)nc3cnc(Nc4ccc(N5CCN(C)CC5)c(C)c4)nc32)C1 [Compound 24, (S)-8-(1-acryloyl-3-pyrrolidinyl)-6-isopropyl-2-((3-methyl-4-(4-methyl-1-piperazinyl)phenyl)amino)-7(8H)-pteridinone]"
11100 µg/mL,,89.6 µM,,18.2 µM,> 10000 nM,> 10000 nM,,,,,C=CC(=O)N1CC[C@@H](n2c(=O)cnc3cnc(Nc4ccc(N5CCN(C)CC5)cc4OC)nc32)C1 [Compound 2]
72.2 µg/mL,251 nM,> 10 µM,2880 nM,4.49 µM,,,,,,,"C=CC(=O)N1CCC[C@@H](Cn2c(=O)c(C(C)C)nc3cnc(Nc4ccc(N5CCN(C)CC5)cc4OC)nc32)C1 [Compound 21, (R)-8-((1-acryloyl-3-piperidinyl)methyl)-6-isopropyl-2-((2-methoxy-4-(4-methyl-1-piperazinyl)phenyl)amino)-7(8H)-pteridinone]"
,,,,,,,295 ± 85 nM,5.31 ± 1.04 µM,273 ± 38 nM,> 10 µM,C=CC(=O)N1CCC[C@@H](Cn2c(=O)c(-c3ccccc3)nc3cnc(Nc4ccc(N5CCN(C)CC5)cc4OC)nc32)C1 [53-1 (R)]
51.8 µg/mL,14.8 nM,1.69 µM,106 nM,0.46 µM,,,,,,,"C=CC(=O)Nc1cccc(-n2c(=O)cnc3cnc(Nc4cc(C)c(N5CCN(C)CC5)cc4OC)nc32)c1 [Compound 6, N-(3-(2-4-((2-methoxy-5-methyl-4-(4-methyl-1-piperazinyl)phenyl)amino)-7-oxo-8(7H)-pteridinyl)phenyl)acrylamide]"
514 µg/mL,2250 nM,,2300 nM,,,,,,,,"C=CC(=O)N1CCC(n2c(=O)cnc3cnc(Nc4ccc(N5CCN(C)CC5)cc4OC)nc32)CC1 [Compound 15, 8-(1-acryloyl-4-piperidinyl)-2-((2-methoxy-4-(4-methyl-1-piperazinyl)phenyl)amino)-7(8H)-pteridinone]"
90.7 µg/mL,14.1 nM,3.41 µM,174 nM,1.16 µM,,,,,,,"C=CC(=O)Nc1cccc(-n2c(=O)c(C(C)C)nc3cnc(Nc4ccc(N(C)CCN(C)C)cc4OC)nc32)c1 [Compound 19, N-(3-(2-((4-((2-(dimethylamino)ethyl)(methyl)amino)-2-methoxyphenyl)amino)-6-isopropyl-7-oxo-8(71-1)-pteridinyl)phenyl)acrylamide]"
< 10 µg/mL,0.6 nM,0.433 µM,7.7 nM,0.112 µM,,,,,,,"C=CC(=O)Nc1cccc(-n2c(=O)c(C3CCCCC3)nc3cnc(Nc4ccc(N5CCN(C)CC5)cc4OC)nc32)c1 [Compound 43, N-(3-(6-cyclohexyl-2-((2-methoxy-4-(4-methyl-1-piperazinyl)phenyl)amino)-7-oxo-8(7H)pteridinyl)phenyl)acrylamide]"
7.4 µg/mL,1.3 nM,6 µM,15 nM,0.04 µM,,,,,,,"C=CC(=O)Nc1cccc(-n2c(=O)c(-c3ccccc3)nc3cnc(Nc4ccc(N(C)CCN(C)C)cc4OC)nc32)c1 [Compound 20, N-(3-(2-((4-((2-(dimethylamino)ethyl)(methyl)amino)-2-methoxyphenyl)amino)-7-oxo-6-phenyl-8(7H)-pteridinyl)phenyl)acrylamide]"
,,,,,,,15.2 ± 2.3 nM,> 10 µM,8 ± 0.8 nM,0.062 ± 0.012 µM,C=CC(=O)N1CCC[C@H](Cn2c(=O)c(-c3ccccc3)nc3cnc(Nc4ccc(N5CCN(C)CC5)cc4OC)nc32)C1 [53-2 (S)]
399 µg/mL,191 nM,7.53 µM,93.7 nM,2.6 µM,,,,,,,"C=CC(=O)Nc1cccc(-n2c(=O)cnc3cnc(Nc4ccc(N5CCN(C)CC5)cc4OCCOC)nc32)c1 [Compound 10, N-(3-(2-((2-(methoxyethoxy)-4-(4-methyl-1-piperazinyl)phenyl)amino)-7-oxo-8(7H)-pteridinyl)phenyl)acrylamide]"
< 10 µg/mL,,,,,,,,,,,"C=CC(=O)N1CCCC(n2c(=O)c(-c3ccccc3)nc3cnc(Nc4ccc(N5CCN(C)CC5)cc4OC)nc32)C1 (stereo not drawn) [Compound 58, 8-(1-acryloyl-3-piperidinyl)-2-((2-methoxy-4-(4-methyl-1-piperazinyl)phenyl)amino)-6-phenyl-7(8H)pteridinone]"
